# PubChem BioAssay (NCI)
#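 Five compound concentrations were applied to cells in 96-well plates for 48 hours; endpoints were derived by simple linear interpolation of the resulting dose-response curve. The concentration for 50% growth inhibition is given as GI50. TGI: total growth inhibition.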
# Legend:
# Assay in all cases: growth of human tumour cells (NCI), 48 h
# [1] = tested on: HT29 colon
# [2] = tested on: NCI-H23 lung
# [3] = tested on: SNB-75 CNS
# [4] = tested on: M14 melanoma
# [5] = tested on: KM12 colon
# [6] = tested on: PC-3 prostate
# [7] = tested on: U251 CNS
# [8] = tested on: OVCAR-3 ovarian
# [9] = tested on: HL-60(TB) leukemia
# [10] = tested on: MCF7 breast
Structure (SMILES),TGI [1] [µM],TGI [2] [µM],TGI [3] [µM],TGI [4] [µM],TGI [5] [µM],TGI [6] [µM],TGI [7] [µM],TGI [8] [µM],TGI [9] [µM],TGI [10] [µM],GI50 [8] [µM],GI50 [1] [µM],GI50 [2] [µM],GI50 [3] [µM],GI50 [5] [µM],GI50 [6] [µM],GI50 [7] [µM],GI50 [9] [µM],GI50 [10] [µM]
Nc1ccc(S(=O)(=O)Nc2nc3ccccc3nc2N2CCCCCC2)cc1,> 100,47.7,> 100,> 100,> 100,> 100,46.4,40.2,52,> 100,,,,,,,,,
CN(C)/N=N/c1nc2c(c(=O)n(C)c(=O)n2C)n1CC(O)CO (stereo not given),> 100,> 100,> 100,> 100,> 100,> 100,> 100,> 100,> 100,> 100,,,,,,,,,
O=C1CC(=O)n2cnc3cccc(c32)N1,> 100,> 100,> 100,> 100,> 100,> 100,> 100,> 100,> 100,> 100,,,,,,,,,
CN(C)CCn1c(CO)nc2c1c(=O)n(C)c(=O)n2C,> 100,> 100,> 100,> 100,> 100,> 100,> 100,> 100,> 100,> 100,,,,,,,,,
C#CCn1c(=O)c(C)cn(/C(=C\C(=O)OCC)C(=O)OCC)c1=O,4.03,27.3,36,11.3,53.6,27.6,15,18.4,> 100,11.9,,,,,,,,,
CN1C(=O)C(O)C[C@@H]1c1ccccc1 (stereo not given in full),> 100,> 100,> 100,> 100,> 100,> 100,> 100,> 100,> 100,> 100,,,,,,,,,
CC(C)=CCNc1nc(Cl)nc2nc[nH]c12,> 100,> 100,> 100,> 100,> 100,> 100,,> 100,> 100,> 100,,,,,,,,,
CC(Oc1ccccc1Cl)C(=O)NN1C(=O)CSC1c1ccccc1 (stereo not given),> 100,> 100,> 100,> 100,> 100,> 100,> 100,> 100,83.7,> 100,,,,,,,,,
Cc1ccc(S(=O)(=O)Nn2c(O)c(C#N)c(-c3ccc(Cl)cc3)c(C#N)c2=O)cc1,> 100,,> 100,> 100,> 100,> 100,> 100,,> 100,> 100,,,,,,,,,
Cc1cc(C)c2c(c1)C(=O)/C(=C/c1ccccc1C(=O)O)C2,> 100,,> 100,> 100,> 100,> 100,> 100,> 100,> 100,> 100,,,,,,,,,
COc1cc(C2c3cc4c(cc3C3OC[C@@H]2C3CO)OCO4)cc(OC)c1OC (stereo not given in full),> 100,,> 100,> 100,> 100,> 100,> 100,97.9,18.7,> 100,23.9,,,,,,,,
CCCSc1ccc2[nH]c(N3C(=O)/C(=C/c4ccccc4)N=C3c3ccccc3)cc2c1,> 50,> 50,> 50,> 50,> 50,> 50,,,30.2,> 50,,,,,,,,,
Cc1cc(OC(=O)NCn2cc(-c3ccccc3)nn2)ccc1Cl,> 100,> 100,> 100,> 100,> 100,> 100,> 100,,> 100,> 100,,,,,,,,,
Cn1c(-c2ccc(/C=N/NC(=S)N/N=C/c3ccc(-c4c[n+]5ccsc5n4C)cc3)cc2)c[n+]2ccsc12,> 100,,> 100,> 100,> 100,> 100,> 100,,> 100,> 100,,,,,,,,,
CCOP(=O)(O)CN1CCNCCN(CP(=O)(O)OCC)CCNCC1,> 100,,> 100,,> 100,> 100,> 100,> 100,> 100,> 100,,,,,,,,,
CCOC(=O)c1cc(C)nc2c1c(=O)n(-c1ccccc1)c(=O)n2CCCCN1CCN(c2ccccc2)CC1,> 100,> 100,> 100,> 100,> 100,> 100,> 100,,49.1,> 100,,,,,,,,,
COc1ccc(Nc2ccc3ccccc3c2-c2c(O)ccc3ccccc23)cc1,29.6,32.4,46.2,,29.5,29.3,56,27.7,55.2,25.6,,,,,,,,,
Cc1nnc2n1N=C(c1ccc(Cl)cc1Cl)/C(=C/c1ccc(-c3ccc([N+](=O)[O-])cc3Cl)o1)S2,> 100,28.1,> 100,,> 100,> 100,30.2,34,62.9,14.3,14.4,49.9,12.5,73.2,32.4,31.3,14.9,25.1,2.06
